In the Kinase Knowledgebase extract (Sharma et al. 2016):
“And” between values parts separate entries of the source, which are not always exact repeats. Identical values can stand only once.

Experiments:
EGFR (human) = EGFR (human) (UniProt P00533)
[1] = molecular target: EGFR (human), P00533 [L858R]
[2] = molecular target: EGFR (Human), P00533 [T790M/L858R]
[3] = molecular target: EGFR (Human), P00533 [Assessment of EGFR-Del T790M Dependent Cell Proliferation in BaF3 Cells]
[4] = molecular target: EGFR (Human), P00533 [T790M/L858R]; settings: baf3

Chain of EGFR (human), P00533 [L858R] (P00533 whole entry L858R, looked up): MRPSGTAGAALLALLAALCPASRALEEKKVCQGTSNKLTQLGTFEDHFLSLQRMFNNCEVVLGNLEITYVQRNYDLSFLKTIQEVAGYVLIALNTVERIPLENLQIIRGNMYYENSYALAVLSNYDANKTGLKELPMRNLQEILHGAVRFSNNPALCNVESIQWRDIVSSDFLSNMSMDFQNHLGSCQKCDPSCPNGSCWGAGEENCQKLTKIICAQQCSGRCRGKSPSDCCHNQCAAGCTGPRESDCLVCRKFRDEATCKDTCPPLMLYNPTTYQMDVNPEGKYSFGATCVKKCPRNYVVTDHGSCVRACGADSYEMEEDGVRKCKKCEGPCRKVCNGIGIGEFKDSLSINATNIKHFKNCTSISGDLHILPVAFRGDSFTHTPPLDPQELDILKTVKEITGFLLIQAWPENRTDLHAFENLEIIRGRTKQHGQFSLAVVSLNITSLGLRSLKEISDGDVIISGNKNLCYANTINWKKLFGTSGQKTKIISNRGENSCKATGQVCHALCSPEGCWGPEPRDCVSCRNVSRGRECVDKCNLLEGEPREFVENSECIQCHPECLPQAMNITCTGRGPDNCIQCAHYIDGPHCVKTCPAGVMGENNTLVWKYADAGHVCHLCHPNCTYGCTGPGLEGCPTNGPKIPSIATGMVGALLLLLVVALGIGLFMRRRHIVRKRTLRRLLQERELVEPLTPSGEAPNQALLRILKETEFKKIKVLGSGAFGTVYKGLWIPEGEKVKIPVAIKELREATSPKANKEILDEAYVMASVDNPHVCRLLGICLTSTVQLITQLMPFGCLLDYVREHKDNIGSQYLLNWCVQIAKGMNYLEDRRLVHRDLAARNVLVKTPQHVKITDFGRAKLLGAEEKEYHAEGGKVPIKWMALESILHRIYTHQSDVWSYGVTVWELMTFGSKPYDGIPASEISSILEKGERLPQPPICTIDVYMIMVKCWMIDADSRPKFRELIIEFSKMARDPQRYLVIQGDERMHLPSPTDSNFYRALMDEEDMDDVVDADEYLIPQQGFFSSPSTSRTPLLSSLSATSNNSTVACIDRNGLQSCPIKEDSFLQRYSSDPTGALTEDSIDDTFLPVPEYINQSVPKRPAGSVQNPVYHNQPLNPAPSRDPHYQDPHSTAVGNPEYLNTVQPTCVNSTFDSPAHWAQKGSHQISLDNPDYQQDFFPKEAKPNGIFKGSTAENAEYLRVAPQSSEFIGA
Chain of EGFR (Human), P00533 [T790M/L858R] (P00533 whole entry T790M/L858R, looked up): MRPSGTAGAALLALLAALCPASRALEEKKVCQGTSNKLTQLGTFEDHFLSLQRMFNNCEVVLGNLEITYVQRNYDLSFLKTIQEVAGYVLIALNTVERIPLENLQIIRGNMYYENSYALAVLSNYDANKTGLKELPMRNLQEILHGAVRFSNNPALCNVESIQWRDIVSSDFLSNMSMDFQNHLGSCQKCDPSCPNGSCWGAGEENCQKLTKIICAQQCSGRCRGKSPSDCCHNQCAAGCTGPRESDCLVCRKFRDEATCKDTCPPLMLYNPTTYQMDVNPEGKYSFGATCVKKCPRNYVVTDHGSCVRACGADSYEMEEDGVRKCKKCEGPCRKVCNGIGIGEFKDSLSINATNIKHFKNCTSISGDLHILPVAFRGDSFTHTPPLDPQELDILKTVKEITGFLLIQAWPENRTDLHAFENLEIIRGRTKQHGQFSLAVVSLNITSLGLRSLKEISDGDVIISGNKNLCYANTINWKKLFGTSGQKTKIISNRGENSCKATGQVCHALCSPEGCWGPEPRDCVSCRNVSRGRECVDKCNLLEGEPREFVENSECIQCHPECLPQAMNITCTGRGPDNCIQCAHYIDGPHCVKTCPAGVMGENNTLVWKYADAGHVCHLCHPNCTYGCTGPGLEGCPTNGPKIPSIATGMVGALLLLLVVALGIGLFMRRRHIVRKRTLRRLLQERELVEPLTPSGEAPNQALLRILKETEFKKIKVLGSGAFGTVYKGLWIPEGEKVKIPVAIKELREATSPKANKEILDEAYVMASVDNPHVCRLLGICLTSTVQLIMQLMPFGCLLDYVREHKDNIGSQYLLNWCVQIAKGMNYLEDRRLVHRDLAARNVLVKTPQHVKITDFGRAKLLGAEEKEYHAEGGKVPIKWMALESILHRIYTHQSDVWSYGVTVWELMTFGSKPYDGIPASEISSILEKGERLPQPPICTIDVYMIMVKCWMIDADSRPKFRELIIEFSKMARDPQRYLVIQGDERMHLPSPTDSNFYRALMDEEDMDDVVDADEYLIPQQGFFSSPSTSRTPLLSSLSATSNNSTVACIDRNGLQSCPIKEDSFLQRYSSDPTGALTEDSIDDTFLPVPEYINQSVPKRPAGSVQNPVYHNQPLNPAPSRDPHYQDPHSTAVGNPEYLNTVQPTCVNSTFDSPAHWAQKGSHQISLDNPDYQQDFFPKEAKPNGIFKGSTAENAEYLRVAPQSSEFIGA
Chain of EGFR (human) (P00533 whole entry, looked up): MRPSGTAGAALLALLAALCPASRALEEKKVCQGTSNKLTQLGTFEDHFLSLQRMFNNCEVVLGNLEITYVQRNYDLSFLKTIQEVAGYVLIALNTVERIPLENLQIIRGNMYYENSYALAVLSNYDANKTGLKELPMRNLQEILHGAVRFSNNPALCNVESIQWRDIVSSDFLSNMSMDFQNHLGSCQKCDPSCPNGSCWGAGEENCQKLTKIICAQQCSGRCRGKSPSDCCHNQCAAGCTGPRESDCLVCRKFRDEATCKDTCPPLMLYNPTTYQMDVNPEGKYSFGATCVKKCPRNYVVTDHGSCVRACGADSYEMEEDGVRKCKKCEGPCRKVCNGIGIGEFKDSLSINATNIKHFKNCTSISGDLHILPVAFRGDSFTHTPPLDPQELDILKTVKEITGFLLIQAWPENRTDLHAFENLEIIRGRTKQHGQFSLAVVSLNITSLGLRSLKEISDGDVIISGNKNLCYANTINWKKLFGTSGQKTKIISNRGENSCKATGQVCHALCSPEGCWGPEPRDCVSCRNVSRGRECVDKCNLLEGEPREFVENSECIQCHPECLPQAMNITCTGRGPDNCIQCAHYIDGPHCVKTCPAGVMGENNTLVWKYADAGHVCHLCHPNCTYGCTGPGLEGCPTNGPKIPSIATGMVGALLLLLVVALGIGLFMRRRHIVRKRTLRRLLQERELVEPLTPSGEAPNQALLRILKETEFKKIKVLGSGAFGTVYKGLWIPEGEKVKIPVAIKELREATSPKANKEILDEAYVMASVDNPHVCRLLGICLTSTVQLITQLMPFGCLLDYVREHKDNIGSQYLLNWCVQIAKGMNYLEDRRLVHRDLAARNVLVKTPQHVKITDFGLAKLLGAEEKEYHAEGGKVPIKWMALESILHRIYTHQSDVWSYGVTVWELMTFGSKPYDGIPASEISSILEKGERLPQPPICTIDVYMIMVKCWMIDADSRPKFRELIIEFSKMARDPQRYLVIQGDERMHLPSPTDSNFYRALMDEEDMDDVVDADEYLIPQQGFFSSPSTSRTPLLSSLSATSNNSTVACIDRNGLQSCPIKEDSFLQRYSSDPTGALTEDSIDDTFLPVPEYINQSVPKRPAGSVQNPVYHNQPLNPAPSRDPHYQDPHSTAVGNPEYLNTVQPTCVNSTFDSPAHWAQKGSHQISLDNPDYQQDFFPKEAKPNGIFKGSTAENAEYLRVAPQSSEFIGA
Chain of EGFR (Human), P00533 [Assessment of EGFR-Del T790M Dependent Cell Proliferation in BaF3 Cells] (P00533 whole entry, looked up, stated change not applied): as the sequence (P00533 whole entry, looked up) above

IC50 (EGFR (human)) [µM]	IC50 [1] [µM]	IC50 [2] [µM]	IC50 [3]	IC50 [4]	Structure (SMILES)
< 0.05	< 0.05	< 0.05	< 0.05 µM	< 0.05 µM	C=CC(=O)Nc1cc(Nc2ncc(Cl)c(Nc3ccccc3P(C)(C)=O)n2)c(OC)cc1OC(COCC)CN(C)C (stereo not drawn)
< 0.05	< 0.05	< 0.05	< 0.05 µM	< 0.05 µM	C=CC(=O)Nc1cc(Nc2ncc(Cl)c(Nc3ccccc3P(C)(C)=O)n2)c(OC)cc1C#CCN(C)CCOC
< 0.05	< 0.05	< 0.05	< 0.05 µM	< 0.05 µM	COc1ccc(NC(=O)C#CC(C)(C)N2CCCC2)cc1Nc1ncc(Cl)c(Nc2ccccc2P(C)(C)=O)n1
< 0.05	< 0.05	< 0.05	< 0.05 µM	< 0.05 µM	C=CC(=O)Nc1cc(Nc2ncc(Cl)c(Nc3ccccc3P(C)(C)=O)n2)c(OC)cc1N1CC[C@H](N(C)C)C1
< 0.05	< 0.05	< 0.05	< 0.05 µM	< 0.05 µM	C=CC(=O)Nc1cc(Nc2ncc(Cl)c(Nc3ccccc3P(C)(C)=O)n2)c(Cl)cc1C#CCN(C)C
–	–	0.101 to 0.25	–	–	COc1ccc(NC(=O)/C=C\C(=O)O)cc1Nc1ncc(Cl)c(Nc2ccccc2P(C)(C)=O)n1
–	< 0.05	< 0.05	0.05 to 0.1 µM	–	COc1ccc(NC(=O)/C=C/CN2CCCC2)cc1Nc1ncc(Cl)c(Nc2ccccc2P(C)(C)=O)n1
–	< 0.05	0.05 to 0.1	0.05 to 0.1 µM	0.101 to 0.25 µM	C=CC(=O)Nc1cc(Nc2ncc(Cl)c(Nc3ccccc3P(C)(C)=O)n2)c(OC)cc1OCC1CCOCC1
–	< 0.05	< 0.05	< 0.05 µM	0.101 to 0.25 µM	CC#CC(=O)Nc1cc(Nc2ncc(Cl)c(Nc3ccccc3P(C)(C)=O)n2)c(OC)cc1OCCN1CCCC1
< 0.05	< 0.05	< 0.05	–	–	C=CC(=O)Nc1cc(Nc2ncc(Cl)c(Nc3ccccc3P(C)(C)=O)n2)c(OC)cc1N1CCC(N2CCN(CCO)CC2)C1 (stereo not drawn)
–	< 0.05	0.05 to 0.1	< 0.05 µM	0.05 to 0.1 µM	C=C(F)C(=O)Nc1ccc(OC)c(Nc2ncc(Cl)c(Nc3ccccc3P(C)(C)=O)n2)c1
< 0.05	< 0.05	< 0.05	–	–	C=CC(=O)Nc1cc(Nc2ncc(Cl)c(Nc3ccccc3P(C)(C)=O)n2)c(OC)cc1N1CCC(N)C1 (stereo not drawn)
< 0.05	< 0.05	< 0.05	0.101 to 0.25 µM	–	C=CC(=O)Nc1cc(Nc2ncc(Cl)c(Nc3ccccc3P(C)(C)=O)n2)c(OC)cc1N1CCC(N2CCC(O)CC2)C1 (stereo not drawn)
–	< 0.05	< 0.05	< 0.05 µM	0.101 to 0.25 µM	CNC(=O)/C=C\C(=O)Nc1ccc(OC)c(Nc2ncc(Cl)c(Nc3ccccc3P(C)(C)=O)n2)c1
–	0.101 to 0.25	–	< 0.05 µM	0.05 to 0.1 µM	CC#CC(=O)Nc1cc(Nc2ncc(Cl)c(Nc3ccccc3P(C)(C)=O)n2)c(OC)cc1OCC1CCOCC1
< 0.05	< 0.05	< 0.05	–	–	C=CC(=O)Nc1cc(Cc2ncc(Cl)c(Nc3ccccc3P(C)(C)=O)n2)c(OC)cc1C#CCN(C)C(C)(C)C
0.101 to 0.25	< 0.05	< 0.05	–	–	C=CC(=O)Nc1cc(Nc2ncc(Cl)c(Nc3ccccc3P(C)(C)=O)n2)c(OC)cc1OCCN1CCN(C)CC1
< 0.05	< 0.05	< 0.05	–	–	COc1ccc(NC(=O)/C=C/C(=O)NCCN(C)C)cc1Nc1ncc(Cl)c(Nc2ccccc2P(C)(C)=O)n1
–	< 0.05	< 0.05	0.101 to 0.25 µM	0.101 to 0.25 µM	C=CC(=O)Nc1cc(Nc2ncc(Cl)c(Nc3ccccc3P(C)(C)=O)n2)c(OC)cc1C#CC1(N(C)C)CC1

The remaining lines, values behind:

Structure (SMILES)	IC50 (EGFR (human)) [µM]	IC50 [1] [µM]	IC50 [2] [µM]	IC50 [3]	IC50 [4]
C=CC(=O)Nc1cc(Nc2ncc(Cl)c(Nc3ccccc3P(C)(C)=O)n2)c(OC)cc1N1CCC(N(C)C)C1 (stereo not drawn)	< 0.05	< 0.05	< 0.05	< 0.05 µM	< 0.05 µM
C=CC(=O)Nc1cc(Nc2ncc(Cl)c(Nc3ccccc3P(C)(C)=O)n2)c(OC)cc1O[C@@H]1CCCN(C)C1	< 0.05	< 0.05	< 0.05	< 0.05 µM	< 0.05 µM
C=C(CN1CCC(N2CCN(C)CC2)CC1)C(=O)Nc1ccc(OC)c(Nc2ncc(Cl)c(Nc3ccccc3P(C)(C)=O)n2)c1	< 0.05	< 0.05	< 0.05	< 0.05 µM	< 0.05 µM
C=CC(=O)Nc1ccc(OC)c(Nc2ncc(Cl)c(Nc3ccccc3P(C)(C)=O)n2)c1	–	< 0.05	< 0.05	0.101 to 0.25 µM	–
COc1ccc(NC(=O)/C=C/C2(N)CC2)cc1Nc1ncc(Cl)c(Nc2ccccc2P(C)(C)=O)n1	0.101 to 0.25	< 0.05	< 0.05	–	–
COc1ccc(NC(=O)/C=C/C(=O)N(C)C)cc1Nc1ncc(Cl)c(Nc2ccccc2P(C)(C)=O)n1	–	0.05 to 0.1	0.101 to 0.25	–	–
COc1ccc(NC(=O)C2=CCCN(C)C2)cc1Nc1ncc(Cl)c(Nc2ccccc2P(C)(C)=O)n1	–	< 0.05	< 0.05	–	–
COc1ccc(NC(=O)/C=C\C(=O)N2CCN(C)CC2)cc1Nc1ncc(Cl)c(Nc2ccccc2P(C)(C)=O)n1	–	0.101 to 0.25	–	–	–
C=CC(=O)Nc1cc(Cc2ncc(Cl)c(Nc3ccccc3P(C)(C)=O)n2)c(OC)cc1C#CCN1CCC(N(C)C)C1 (stereo not drawn)	0.05 to 0.1	< 0.05	< 0.05	–	–
C=C(CN1CCNC(=O)C1)C(=O)Nc1ccc(OC)c(Nc2ncc(Cl)c(Nc3ccccc3P(C)(C)=O)n2)c1	< 0.05	< 0.05	< 0.05	0.101 to 0.25 µM	–
CNC(=O)/C=C/C(=O)Nc1ccc(OC)c(Nc2ncc(Cl)c(Nc3ccccc3P(C)(C)=O)n2)c1	–	< 0.05	< 0.05	0.05 to 0.1 µM	0.101 to 0.25 µM
C=CC(=O)Nc1cc(Nc2ncc(Cl)c(Nc3ccccc3P(C)(C)=O)n2)c(OC)cc1N1CCC(N2CCN(C)CC2)CC1	< 0.05	–	< 0.05	0.05 to 0.1 µM and < 0.05 µM	0.05 to 0.1 µM and < 0.05 µM
C=CC(=O)Nc1cc(Nc2ncc(Cl)c(Nc3ccccc3P(C)(C)=O)n2)c(OC)cc1N1CCC(N2CCC(O)C2)C1 (stereo not drawn)	< 0.05	< 0.05	< 0.05	0.101 to 0.25 µM	–
C=CC(=O)Nc1cc(Cc2ncc(Cl)c(Nc3ccccc3P(C)(C)=O)n2)c(OC)cc1C#CCN1CCC(C)CC1	< 0.05	< 0.05	< 0.05	–	–
COc1ccc(NC(=O)/C=C\C(=O)NCCN(C)C)cc1Nc1ncc(Cl)c(Nc2ccccc2P(C)(C)=O)n1	–	< 0.05	< 0.05	–	–
C=CC(=O)Nc1cc(Nc2ncc(Cl)c(Nc3ccccc3P(C)(C)=O)n2)c(OC)cc1C(=O)N1CCN(C)CC1	0.101 to 0.25	< 0.05	< 0.05	–	–
C=CC(=O)Nc1cc(Nc2ncc(Cl)c(Nc3ccccc3P(C)(C)=O)n2)c(OC)cc1OC1COC1	–	< 0.05	< 0.05	< 0.05 µM	0.05 to 0.1 µM

Structure (SMILES)	IC50 (EGFR (human)) [µM]	IC50 [1] [µM]	IC50 [2] [µM]	IC50 [3]	IC50 [4]
COc1ccc(NC(=O)CF)cc1Nc1ncc(Cl)c(Nc2ccccc2P(C)(C)=O)n1	–	0.05 to 0.1	0.101 to 0.25	–	–
COc1ccc(NC(=O)C#Cc2ccccc2)cc1Nc1ncc(Cl)c(Nc2ccccc2P(C)(C)=O)n1	–	< 0.05	< 0.05	< 0.05 µM	< 0.05 µM
C=CC(=O)N1CCc2cc(Nc3ncc(Cl)c(Nc4ccccc4P(C)(C)=O)n3)c(OC)cc21	–	–	–	0.101 to 0.25 µM	–
C=C(CN1CCS(=O)(=O)CC1)C(=O)Nc1ccc(OC)c(Nc2ncc(Cl)c(Nc3ccccc3P(C)(C)=O)n2)c1	–	0.05 to 0.1	< 0.05	–	–
C=CC(=O)Nc1ccc(OC)c(Nc2ncc(C#N)c(Nc3ccccc3P(C)(C)=O)n2)c1	< 0.05	< 0.05	< 0.05	0.101 to 0.25 µM	–
C=CC(=O)Nc1cc(Nc2ncc(Cl)c(Nc3ccccc3P(C)(C)=O)n2)c(OC)cc1OCC1CCCN1C (stereo not drawn)	–	–	–	< 0.05 µM	< 0.05 µM
C=CC(=O)Nc1cc(Nc2ncc(Cl)c(Nc3ccccc3P(C)(C)=O)n2)c(OC)cc1OC1CN(C)C1	–	–	–	0.05 to 0.1 µM	0.101 to 0.25 µM
C=CC(=O)Nc1cc(Nc2ncc(Cl)c(Nc3ccccc3P(C)(C)=O)n2)c(OC)cc1CCN1CCN(C)CC1	< 0.05	< 0.05	< 0.05	0.101 to 0.25 µM	–
C=CC(=O)Nc1ccc(F)c(Nc2ncc(Cl)c(Nc3ccccc3P(C)(C)=O)n2)c1	–	–	–	< 0.05 µM	< 0.05 µM
COc1ccc(NC(=O)/C=C/C(=O)N2CCN(C)CC2)cc1Nc1ncc(Cl)c(Nc2ccccc2P(C)(C)=O)n1	< 0.05	< 0.05	< 0.05	0.101 to 0.25 µM	–
COc1cc(P(C)(C)=O)ccc1Nc1ncc(Cl)c(Oc2cccc(NC(=O)C#CCN(C)C)c2)n1	< 0.05	< 0.05	< 0.05	0.101 to 0.25 µM	–
CC#CC(=O)Nc1cc(Nc2ncc(Cl)c(Nc3ccccc3P(C)(C)=O)n2)c(OC)cc1OC1COC1	–	< 0.05	0.05 to 0.1	< 0.05 µM	0.05 to 0.1 µM
C=C(C(=O)Nc1ccc(OC)c(Nc2ncc(Cl)c(Nc3ccccc3P(C)(C)=O)n2)c1)C(F)(F)F	< 0.05	< 0.05	< 0.05	–	–
C=CC(=O)Nc1cc(Nc2ncc(Cl)c(Nc3ccccc3P(C)(C)=O)n2)c(OC)cc1OCC(CO)N(C)C (stereo not drawn)	–	–	–	0.101 to 0.25 µM	–
C=CC(=O)Nc1cc(Nc2ncc(Cl)c(Nc3ccccc3P(C)(C)=O)n2)c(OC)cc1C#CCN(CC)CC	–	< 0.05	< 0.05	< 0.05 µM	< 0.05 µM
C=CC(=O)Nc1cc(Nc2ncc(Cl)c(Nc3ccccc3P(C)(C)=O)n2)c(OC)cc1OCC1CCN(C)CC1	0.05 to 0.1	< 0.05	< 0.05	0.101 to 0.25 µM	–
C=CC(=O)Nc1ccc(OC)c(Nc2cc(Nc3ccccc3P(C)(C)=O)ncn2)c1	0.05 to 0.1	< 0.05	0.101 to 0.25	–	–
